{"source": "ChEMBL document CHEMBL6109096", "about": "“Synthesis, anti-allergic rhinitis evaluation and mechanism investigation of novel 1,2,4-triazole-enamides as CB1 R antagonist” (Eur J Med Chem, 2025)", "key": {"RAW264.7 [1]": {"tested_on": "RAW264.7", "assay": "Cytotoxicity against mouse RAW264.7 cells assessed as reduction in cell viability at 10 uM incubated for 24 hrs by CCK-8 assay", "assay_type": "toxicity, cell-based", "conditions": "raw264.7, 24 h"}, "RAW264.7 [2]": {"tested_on": "RAW264.7", "assay": "Downregulation of p-P38 intranuclear expression in mouse RAW264.7 cells at 5 to 20 uM by immunofluorescence staining based analysis", "assay_type": "functional, cell-based", "conditions": "dose 5-20 µM"}, "RAW264.7 [3]": {"tested_on": "RAW264.7", "assay": "Downregulation of P-IKBalpha protein expression in LPS-induced mouse RAW264.7 cells at 5 to 20 uM by Western blotting analysis", "assay_type": "functional, cell-based", "conditions": "dose 5-20 µM"}, "RAW264.7 [4]": {"tested_on": "RAW264.7", "assay": "Downregulation of CB1 R expression in LPS-induced mouse RAW264.7 cells at 5 to 20 uM by immunofluorescence staining based analysis", "assay_type": "functional, cell-based", "conditions": "dose 5-20 µM"}, "Mus musculus [5]": {"tested_on": "Mus musculus", "assay": "Anti-inflammatory activity in ovalbumin-induced allergic rhinitis male Balb/c mouse assessed as reduction in inflammation of nasal mucosal tissue at 50 to 150 mg/kg, po administered via gavage for 7 days by H and E staining based analysis", "assay_type": "functional, organism-based", "conditions": "dose 50-150 mg/kg, time 7.0 day"}, "RAW264.7 [6]": {"tested_on": "RAW264.7", "assay": "Downregulation of p-ERK protein expression in LPS-induced mouse RAW264.7 cells at 5 to 20 uM by Western blotting analysis", "assay_type": "functional, cell-based", "conditions": "dose 5-20 µM"}, "Mus musculus [7]": {"tested_on": "Mus musculus", "assay": "Anti-inflammatory activity in ovalbumin-induced allergic rhinitis male Balb/c mouse assessed as reduction in number of mast cells on nasal lavage fluid at 150 mg/kg, po administered via gavage for 7 days by giemsa staining based analysis", "assay_type": "functional, organism-based", "conditions": "time 7.0 day"}, "RAW264.7 [8]": {"tested_on": "RAW264.7", "assay": "Downregulation of p-JNK protein expression in LPS-induced mouse RAW264.7 cells at 5 to 20 uM by Western blotting analysis", "assay_type": "functional, cell-based", "conditions": "dose 5-20 µM"}, "Mus musculus [9]": {"tested_on": "Mus musculus", "assay": "Anti-inflammatory activity in ovalbumin-induced allergic rhinitis male Balb/c mouse assessed as reduction in number of eosinophils on nasal lavage fluid at 50 to 150 mg/kg, po administered via gavage for 7 days by giemsa staining based analysis", "assay_type": "functional, organism-based", "conditions": "dose 50-150 mg/kg, time 7.0 day"}, "Mus musculus [10]": {"tested_on": "Mus musculus", "assay": "Anti-inflammatory activity in ovalbumin-induced allergic rhinitis male Balb/c mouse model assessed as reduction in sneezing administered orally via gavage for 7 days", "assay_type": "functional, organism-based", "conditions": "dose 50-150 mg/kg, route po, time 7.0 day"}, "RAW264.7 [11]": {"tested_on": "RAW264.7", "assay": "Anti-inflammatory activity in LPS-induced mouse RAW264.7 cells assessed as reduction in TNF-alpha mRNA expression incubated for 24 hrs by qRT-PCR analysis", "assay_type": "functional, cell-based", "conditions": "dose 5-20 µM"}, "Mus musculus [12]": {"tested_on": "Mus musculus", "assay": "Anti-inflammatory activity in ovalbumin-induced allergic rhinitis male Balb/c mouse model assessed as reduction in IgE expression at 100 mg/kg, po administered via gavage for 7 days (reference value: 0.268 +/- 0.045)", "assay_type": "functional", "conditions": "time 7 day"}, "Mus musculus [13]": {"tested_on": "Mus musculus", "assay": "Anti-inflammatory activity in ovalbumin-induced allergic rhinitis male Balb/c mouse model assessed as reduction in serum histamine expression at 50 to 150 mg/kg, po administered via gavage for 7 days by ELISA", "assay_type": "functional, organism-based", "conditions": "dose 50-150 mg/kg, time 7.0 day"}, "RAW264.7 [14]": {"tested_on": "RAW264.7", "assay": "Downregulation of p-P38 expression in mouse RAW264.7 cells at 5 to 20 uM by immunofluorescence staining based analysis", "assay_type": "functional, cell-based", "conditions": "dose 5-20 µM"}, "Mus musculus [15]": {"tested_on": "Mus musculus", "assay": "Anti-inflammatory activity in ovalbumin-induced allergic rhinitis male Balb/c mouse model assessed as reduction in IL-4 expression in nasal lavage fluid at 50 to 150 mg/kg, po administered via gavage for 7 days by ELISA", "assay_type": "functional, organism-based", "conditions": "dose 50-150 mg/kg, time 7.0 day"}, "Mus musculus [16]": {"tested_on": "Mus musculus", "assay": "Anti-inflammatory activity in ovalbumin-induced allergic rhinitis male Balb/c mouse assessed as reduction in number of eosinophils on nasal lavage fluid at 150 mg/kg, po administered via gavage for 7 days by giemsa staining based analysis", "assay_type": "functional, organism-based", "conditions": "time 7.0 day"}, "RAW264.7 [17]": {"tested_on": "RAW264.7", "assay": "Downregulation of P-P65 protein expression in LPS-induced mouse RAW264.7 cells at 5 to 20 uM by Western blotting analysis", "assay_type": "functional, cell-based", "conditions": "dose 5-20 µM"}, "RAW264.7 [18]": {"tested_on": "RAW264.7", "assay": "Inhibition of IL-1beta (unknown origin) in mouse RAW264.7 relative to control", "assay_type": "cell-based", "conditions": "dose or concentration not given here"}, "RAW264.7 [19]": {"tested_on": "RAW264.7", "assay": "Inhibition of IL-6 (unknown origin) in mouse RAW264.7 relative to control", "assay_type": "cell-based", "conditions": "dose or concentration not given here"}, "Mus musculus [20]": {"tested_on": "Mus musculus", "assay": "Anti-inflammatory activity in ovalbumin-induced allergic rhinitis male Balb/c mouse model assessed as decrease in p-p38 intranuclear expression in nasal mucosal at 50 to 150 mg/kg, po administered via gavage for 7 days by immunofluorescence staining based analysis", "assay_type": "functional, organism-based", "conditions": "dose 50-150 mg/kg, time 7.0 day"}, "Mus musculus [21]": {"tested_on": "Mus musculus", "assay": "Anti-inflammatory activity in ovalbumin-induced allergic rhinitis male Balb/c mouse model assessed as reduction in IgE expression at 50 mg/kg, po administered via gavage for 7 days (reference value: 0.268 +/- 0.045)", "assay_type": "functional", "conditions": "time 7 day"}, "RAW264.7 [22]": {"tested_on": "RAW264.7", "assay": "Downregulation of p-P38 protein expression in LPS-induced mouse RAW264.7 cells at 5 to 20 uM by Western blotting analysis", "assay_type": "functional, cell-based", "conditions": "dose 5-20 µM"}, "RAW264.7 [23]": {"tested_on": "RAW264.7", "assay": "Anti-inflammatory activity in LPS-induced mouse RAW264.7 cells assessed as reduction in IL-6 mRNA expression incubated for 24 hrs by qRT-PCR analysis", "assay_type": "functional, cell-based", "conditions": "dose 5-20 µM"}, "Mus musculus [24]": {"tested_on": "Mus musculus", "assay": "Anti-inflammatory activity in ovalbumin-induced allergic rhinitis male Balb/c mouse assessed as reduction in number of mast cells on nasal lavage fluid at 50 to 150 mg/kg, po administered via gavage for 7 days by giemsa staining based analysis", "assay_type": "functional, organism-based", "conditions": "dose 50-150 mg/kg, time 7.0 day"}, "Mus musculus [25]": {"tested_on": "Mus musculus", "assay": "Anti-inflammatory activity in ovalbumin-induced allergic rhinitis male Balb/c mouse assessed as reduction in number of goblet cells in nasal mucosal tissues at 50 to 150 mg/kg, po administered via gavage for 7 days by PAS staining based analysis", "assay_type": "functional, organism-based", "conditions": "dose 50-150 mg/kg, time 7.0 day"}, "Mus musculus [26]": {"tested_on": "Mus musculus", "assay": "Anti-inflammatory activity in ovalbumin-induced allergic rhinitis male Balb/c mouse model assessed as reduction in nose scratching administered orally via gavage for 7 days", "assay_type": "functional, organism-based", "conditions": "dose 50-150 mg/kg, route po, time 7.0 day"}, "RAW264.7 [27]": {"tested_on": "RAW264.7", "assay": "Anti-inflammatory activity in LPS-induced mouse RAW264.7 cells assessed as reduction in IL-1beta mRNA expression incubated for 24 hrs by qRT-PCR analysis", "assay_type": "functional, cell-based", "conditions": "dose 5-20 µM"}, "Mus musculus [28]": {"tested_on": "Mus musculus", "assay": "Anti-inflammatory activity in ovalbumin-induced allergic rhinitis male Balb/c mouse model assessed as reduction in serum histamine expression at 150 mg/kg, po administered via gavage for 7 days by ELISA", "assay_type": "functional, organism-based", "conditions": "time 7.0 day"}, "Mus musculus [29]": {"tested_on": "Mus musculus", "assay": "Anti-inflammatory activity in ovalbumin-induced allergic rhinitis male Balb/c mouse assessed as reduction in number of cells on nasal lavage fluid at 50 to 150 mg/kg, po administered via gavage for 7 days by giemsa staining based analysis", "assay_type": "functional, organism-based", "conditions": "dose 50-150 mg/kg, time 7.0 day"}, "Mus musculus [30]": {"tested_on": "Mus musculus", "assay": "Anti-inflammatory activity in ovalbumin-induced allergic rhinitis male Balb/c mouse model assessed as reduction in IgE expression at 150 mg/kg, po administered via gavage for 7 days (reference value: 0.268 +/- 0.045)", "assay_type": "functional", "conditions": "time 7 day"}}, "note": "Active and inactive are the calls of the source. The rule behind the calls is not given here."}
{"smiles": "CCCc1nc(C(=O)N(C)/C=C\\c2ccccc2)nn1-c1ccccc1", "values": [{"measurement": "Activity", "setting": "RAW264.7 [1]", "value": "Non-toxic"}]}
{"smiles": "CN(/C=C\\c1ccccc1)C(=O)c1nc(C2CCCCC2)n(-c2ccccc2)n1", "values": [{"measurement": "Activity", "setting": "RAW264.7 [2]", "value": "Active"}, {"measurement": "Activity", "setting": "RAW264.7 [3]", "value": "Active"}, {"measurement": "Activity", "setting": "RAW264.7 [4]", "value": "Active"}, {"measurement": "Activity", "setting": "Mus musculus [5]", "value": "Active"}, {"measurement": "Activity", "setting": "RAW264.7 [6]", "value": "Active"}, {"measurement": "Activity", "setting": "Mus musculus [7]", "value": "Active; Most Effective Group Compared To Other Dosing Group"}, {"measurement": "Activity", "setting": "RAW264.7 [8]", "value": "Active"}, {"measurement": "Activity", "setting": "Mus musculus [9]", "value": "Active"}, {"measurement": "Activity", "setting": "Mus musculus [10]", "value": "Dose-dependent-effect"}, {"measurement": "Activity", "setting": "RAW264.7 [11]", "value": "Dose-dependent-effect"}, {"measurement": "Activity", "setting": "Mus musculus [12]", "value": 0.212}, {"measurement": "Activity", "setting": "Mus musculus [13]", "value": "Active"}, {"measurement": "Activity", "setting": "RAW264.7 [14]", "value": "Active"}, {"measurement": "Activity", "setting": "Mus musculus [15]", "value": "Active"}, {"measurement": "Activity", "setting": "Mus musculus [16]", "value": "Active; Most Effective Group Compared To Other Dosing Group"}, {"measurement": "Activity", "setting": "RAW264.7 [17]", "value": "Active"}, {"measurement": "inhibition", "setting": "RAW264.7 [18]", "value": 77, "unit": "%"}, {"measurement": "inhibition", "setting": "RAW264.7 [19]", "value": 88, "unit": "%"}, {"measurement": "Activity", "setting": "Mus musculus [20]", "value": "Active"}, {"measurement": "Activity", "setting": "Mus musculus [21]", "value": 0.192}, {"measurement": "Activity", "setting": "RAW264.7 [1]", "value": "Non-toxic"}, {"measurement": "Activity", "setting": "RAW264.7 [22]", "value": "Active"}, {"measurement": "Activity", "setting": "RAW264.7 [23]", "value": "Dose-dependent-effect"}, {"measurement": "Activity", "setting": "Mus musculus [24]", "value": "Active"}, {"measurement": "Activity", "setting": "Mus musculus [25]", "value": "Active"}, {"measurement": "Activity", "setting": "Mus musculus [26]", "value": "Dose-dependent-effect"}, {"measurement": "Activity", "setting": "RAW264.7 [27]", "value": "Dose-dependent-effect"}, {"measurement": "Activity", "setting": "Mus musculus [28]", "value": "Active; More Effective Than Other Dosing Group"}, {"measurement": "Activity", "setting": "Mus musculus [29]", "value": "Active"}, {"measurement": "Activity", "setting": "Mus musculus [30]", "value": 0.182}]}
{"smiles": "Cc1nc(C(=O)N(C)/C=C\\c2ccccc2)nn1-c1ccccc1", "values": [{"measurement": "Activity", "setting": "RAW264.7 [1]", "value": "Non-toxic"}]}
{"smiles": "CN(/C=C\\c1ccccc1)C(=O)c1nc(-c2cccc3ccccc23)n(-c2ccccc2)n1", "values": [{"measurement": "inhibition", "setting": "RAW264.7 [18]", "value": 74, "unit": "%"}, {"measurement": "inhibition", "setting": "RAW264.7 [19]", "value": 86, "unit": "%"}, {"measurement": "Activity", "setting": "RAW264.7 [1]", "value": "Non-toxic"}]}
{"smiles": "CN(/C=C\\c1ccccc1)C(=O)c1nc(-c2cccs2)n(-c2ccccc2)n1", "values": [{"measurement": "Activity", "setting": "RAW264.7 [1]", "value": "Non-toxic"}]}
{"smiles": "CN(/C=C\\c1ccccc1)C(=O)c1nc(-c2ccc(F)cc2)n(-c2ccccc2)n1", "values": [{"measurement": "Activity", "setting": "RAW264.7 [1]", "value": "Non-toxic"}]}
